Laboratory results as given in patent US11091429B2, “Organic compounds” (Givaudan SA, priority 2012, dated 2021).

Key:
[1] = Test on mouthwash; conditions: 1 ppm, Paradontax alcohol free mouthwash
Method: (§1) Samples were evaluated by expert tasters. Tasters were asked to describe the samples focusing on authentic taste, mouthfeel, fullness, salty-ness, salivation, umami, sweetness, juiciness, richness, long lastingness and fattiness.
Base: Paradontax alcohol free mouthwash.

[2] = Tasting in pilaf; conditions: cooked rice with 10% of the butter flavoured at 1 ppm
Method: (§2) The following formulations were prepared and tasted by trained panelists.

[3] = Tasting in soy milk; conditions: 2 ppm, soy milk (1.8% fat), 5% sucrose, milk flavour 0.1%
Method: In a soy milk (1.8% fat) sweetened with 5% sucrose by weight, flavoured with a proprietary milk flavour ata dosage of 0.1%, C18:2-gaba was added at 2 ppm
(§3) Samples were evaluated by expert tasters. Tasters were asked to describe the samples focusing on authentic taste, mouthfeel, fullness, salivation, sweetness, juiciness, richness, long lastingness and fattiness.

[4] = Tasting in chocolate milk
Method: Chocolate Milk with Different Fat Content […]
as §3

[5] = Test on Breezer Orange; conditions: 0.5 ppm, 4% alcohol
Method: Samples were evaluated by expert tasters. Tasters were asked to describe the samples focusing on authentic taste, alcohol impact, juiciness, mouthfeel, fullness, salivation, sweetness, bitterness, richness, long lastingness and fattiness.

[6] = Tasting in mango still beverage, 4% clear mango juice; conditions: 1 ppm; 4% clear mango juice (30% reduced juice)
Method: Mango Flavoured Still Beverage Containing Different Levels of Juice,
In a Mango flavoured still beverage, sweetened with 8% sucrose and containing 0.1% citric acid and 1%, 4% and 6% clear mango juice flavoured with a proprietary Mango flavour @ 0.05%, C18:2-gaba and C18:2-Pro were added, as such (separate) and in combination.
All samples were evaluated by expert tasters. Tasters were asked to describe the samples focusing on authentic taste, juicy mouthfeel, enhancement, richness, juiciness, long lastingness, salivation, sweetness.
In a Mango flavoured still beverage, sweetened with 8% sucrose & containing 0.1% citric acid and 4% clear mango juice flavoured with Mango flavour @ 0.05%, C18:2-gaba and C18:2-Pro were added, as such (separate) and in combination.
Base is water, 8% sucrose, 0.1% citric acid, 4% clear mango juice (30% reduced juice), flavoured with Mango flavor, dosed at 0.05%

[7] = Tasting in low fat salad dressing; conditions: 0.5 ppm in low fat salad dressing (13.6% fat)
Method: as §2
low fat salad dressing (13.6% Fat, 8%, carbohydrates (of which 5.3% sugar))
Samples were prepared and evaluated by expert tasters. Tasters were asked to describe the samples focusing on authentic taste, mouthfeel, fullness, salty-ness, salivation, umami, sweetness, juiciness, richness, long lastingness and fattiness.
Calve Salad Dressing Low Fat (13.6% Fat):
Base is Calve salad dressing (market product)
Samples were prepared and evaluated by expert tasters. Tasters were asked to describe the samples focusing on authentic taste, mouthfeel, fullness, salivation, salty-ness, umami, sweetness, juiciness, richness, long lastingness and fattiness.
Low fat salad dressing (13.6% Fat)

[8] = Test in pear flavoured drink; conditions: 1 ppm; water, 7% sugar (8% elsewhere in the source), 0.1% citric acid, pear flavour 0.025%
[9] = Tasting in mango juice drink, 1% clear mango juice; conditions: 8% sucrose, 0.1% citric acid, mango flavour 0.05%
Method: Comparison in a Mango Juice Drink
Base is 8% sucrose, 0.1% citric acid, 1% clear mango juice, and a proprietary mango flavour at 0.05%.
as §1
Base is water, 8% sucrose, 0.1% citric acid, 1% clear mango juice, proprietary mango flavour @ 0.05%
Samples were evaluated by expert tasters. Tasters were asked to describe the samples focusing on authentic taste, mouthfeel, fullness, salivation, salty-ness, umami, sweetness, juiciness, richness, long lastingness and fattiness.
Base is water, 8% sucrose, 0.1% citric acid, 1% clear mango juice, proprietary mango flavour @0.05%
Samples were evaluated by expert tasters. Tasters were asked to describe the samples focusing on authentic taste, mouthfeel, fullness, salty-ness, salivation, umami, sweetness, juiciness, richness, long lastingness and fattiness
Base is 8% sucrose, 0.1% citric acid, 1% clear mango juice, proprietary mango flavour @ 0.05%
Samples were evaluated by expert tasters. Tasters were asked to describe the samples focusing on authentic taste, mouth feel, fullness, salivation, salty-ness, umami, sweetness, juiciness, richness, long lastingness and fattiness
Base is water, 8% sucrose, 0.1% citric acid, 1% clear mango juice, proprietary mango flavour @ 0.05%.
Test in a Mango Juice Drink

[10] = Test on organic acids in a beverage; conditions: 1 ppm, water, 7% sucrose
Method: 14—Testing with Beverages Containing Organic Acids from 0.01% to 7%
Test 18:2 Gaba on Organic Acids in a Beverage.
In a solution containing water, 7% sucrose by weight, and different organic acids, 18:2 gaba was added at 1 ppm. We observed taste effects on the acid perception upon addition of 18:2 gaba.
Base is water, 7% Sucrose by weight, Tartaric acid at 0.121% by weight
Base is water, 7% Sucrose by weight, Malic acid at 0.1081% by weight
Base is water, 7% Sucrose by weight, Citric acid at 0.1% by weight
Base is water, 7% Sucrose by weight, Fumaric acid at 0.0936% by weight

CCCCC/C=C\C/C=C\CCCCCCCC(=O)NCCCC(=O)O [C18:2-gaba]
tasting result [1]: much less bitter, very sweet, smooth, less burning, round spicy, more minty and more cooling | tasting result [2]: more mouthfeel, with a lingering creamy authentic butter taste | tasting result [3]: clean, creamy, good masking of the soy bean taste, creamy and milky | tasting result ([4]; 0.5 ppm, chocolate milk 1.8% fat): stronger cocoa note, more chocolate vs cocoa | tasting result ([4]; 0.5 ppm, chocolate milk 3% fat): very creamy, enhanced cocoa note | tasting result ([4]; 1 ppm, chocolate milk 1.8% fat): very creamy, chocolate, long-lasting creamy and chocolate taste | tasting result ([4]; 1 ppm, chocolate milk 3% fat): very creamy, lasting, sweet, almost taste like chocolate ice cream | tasting result [5]: more alcoholic, sweeter, more juicy orange, less soapy | tasting result [6]: fatty skin-like, very juicy, authentic mango, long lasting mango taste, more mouthfeel than the full juice product | tasting result [7]: much fuller, creamy, rich, less acidic | tasting result ([7]; listed as C18:2 gaba): better mouthfeel that was impressively creamy | tasting result [8]: long lasting, juicy and fatty skin like very authentic, like eating the fruit instead of drinking a drink | tasting result ([9]; 1 ppm): fatty skin-like, very juicy, authentic mango, much more mouthfeel, long lasting mango taste, mouthfeel is close to the full juice product | tasting result ([9]; 2 ppm): fatty skin like, juicy, authentic | tasting result ([10]; citric acid 0.1% by weight): decreased sharp acidic perception, full body mouth feel, higher higher mouthwatering, and an impression of the juicy notes of citrus fruit (orange, lemon) | tasting result ([10]; fumaric acid 0.0936% by weight): decreased sharp acidic perception, full body mouthfeel effects, higher sweet effects, and an impression of the full notes characteristic of sweet red & vanillic flavor types (vanilla, chocolate, raspberry, cherry, especially benzaldhyde) | tasting result ([10]; malic acid 0.1081% by weight): decreased sharp acidic perception, give fuller body, mouthfeel, higher mouthwatering, and an impression of the flesh and skin notes of fruit (apple) | tasting result ([10]; tartaric acid 0.121% by weight): decreased sharp acidic perception, full body mouthfeel, higher mouthwatering, more immediate (upfront hit), and an impression of the flesh of fruit (grape, apple, banana, pear-like)
